Laboratory results from US20100222390A1, “Methods and Compositions for the Intravenous Administration of Compounds Related to Proton Pump Inhibitors” (Alevium Pharmaceuticals, Inc., priority 2004, published 2010).

Experiment: Stability profile at 25° C. in buffered aqueous solutions
Assay type: physicochemical
Conditions: for Degradation Rate Constant (k): 25° C.
Description: While not intending to be bound in any way by theory, the base-catalyzed degradation is unexpected because the commercial proton pump inhibitors are stabilized in aqueous solutions by adjusting the solution to high pH. […] This should allow bolus injection of the compounds disclosed herein as opposed to the slow infusion of the drug currently in practice because the present compositions will not have the irritation associated with the high pH traditionally used with proton pump inhibitors. This should also allow greater flexibility in co-administering these compounds with drugs which are unstable or otherwise incompatible with high pH.

shelf-life (in a neutral solution): over forty hours
Degradation Rate Constant (k) (pH 1, 0.1 M HCl): 0.194 h⁻¹
Degradation Rate Constant (k) (pH 3, Citric Acid (0.1 M)/Na2HPO4 (0.2 M)): 0.009 h⁻¹
Degradation Rate Constant (k) (pH 5, Citric Acid (0.1 M)/Na2HPO4 (0.2 M)): 0.008 h⁻¹
Degradation Rate Constant (k) (pH 7, sodium phosphate (0.1-0.2 M)): 0.002 h⁻¹
Degradation Rate Constant (k) (pH 7.4, sodium phosphate (0.1-0.2 M)): 0.002 h⁻¹
Degradation Rate Constant (k) (pH 9, sodium phosphate (0.1-0.2 M)): 0.03 h⁻¹
Degradation Rate Constant (k) (pH 10, sodium phosphate (0.1-0.2 M)): 0.298 h⁻¹
SMILES: COc1ccc2c(c1)nc([S+]([O-])Cc1ncc(C)c(OC)c1C)n2S(=O)(=O)c1ccc(OCC(=O)O)cc1 (centres unmarked) [Compound 1]
